According to patent US11339130B1 (Blade Therapeutics, Inc., priority 2016, dated 2022):
Read-outs that look alike come from different tables or passages of the source.

Experiments:
Assay type in all cases: biochemical
Human Calpain 1/NS1 = target: T1, Human Calpain 1/NS1 (Homo sapiens, UniProt P07384); experiment: Calpain inhibition continuous fluorescence (FRET) assay, Human Calpain 1/NS1; details: read-out: Human Calpain 1/NS1 IC50
T1 sequence (P07384 1-714): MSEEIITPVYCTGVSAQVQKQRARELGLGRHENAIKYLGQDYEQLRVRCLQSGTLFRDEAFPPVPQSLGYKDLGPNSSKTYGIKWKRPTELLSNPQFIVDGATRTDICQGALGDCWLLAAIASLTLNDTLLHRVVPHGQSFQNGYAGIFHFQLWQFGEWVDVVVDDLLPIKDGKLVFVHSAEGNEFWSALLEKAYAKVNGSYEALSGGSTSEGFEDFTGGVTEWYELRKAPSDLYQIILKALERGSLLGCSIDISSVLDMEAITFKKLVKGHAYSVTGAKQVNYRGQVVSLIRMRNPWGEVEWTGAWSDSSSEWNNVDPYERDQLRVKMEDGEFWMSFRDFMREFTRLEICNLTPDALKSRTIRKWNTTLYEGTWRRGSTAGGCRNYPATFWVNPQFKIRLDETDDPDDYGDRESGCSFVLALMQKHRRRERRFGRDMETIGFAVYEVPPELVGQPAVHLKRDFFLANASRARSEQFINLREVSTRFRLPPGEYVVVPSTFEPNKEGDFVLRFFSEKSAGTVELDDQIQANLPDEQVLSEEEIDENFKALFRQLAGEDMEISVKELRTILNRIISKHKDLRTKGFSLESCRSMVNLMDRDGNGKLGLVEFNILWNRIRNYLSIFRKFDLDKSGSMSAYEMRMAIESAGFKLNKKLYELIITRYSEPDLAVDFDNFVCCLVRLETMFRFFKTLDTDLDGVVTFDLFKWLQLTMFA
T1 sequence (P04632 1-268 partner): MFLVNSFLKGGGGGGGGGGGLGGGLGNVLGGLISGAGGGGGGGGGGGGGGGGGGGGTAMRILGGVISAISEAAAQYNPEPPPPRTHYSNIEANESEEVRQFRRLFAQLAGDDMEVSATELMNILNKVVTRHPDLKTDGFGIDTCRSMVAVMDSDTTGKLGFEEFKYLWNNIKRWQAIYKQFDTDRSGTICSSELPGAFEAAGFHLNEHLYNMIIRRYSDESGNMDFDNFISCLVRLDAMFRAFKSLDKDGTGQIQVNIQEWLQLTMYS
In short: (§1)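 Continuous FRET read (ex 490/em 520 nm, 10 min) of calpain 1, 2 or 9 cleaving an internally quenched 5-FAM peptide, triggered by substrate with CaCl2 after enzyme–inhibitor incubation at ambient 25 °C, pH 7.5 Tris/NaCl/DTT buffer. IC50 from initial rates (1-5 min) via 4-parameter fit.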

Human Calpain 2/NS1 = target: T2, Human Calpain 2/NS1 (Homo sapiens, UniProt P17655); experiment: Calpain inhibition continuous fluorescence (FRET) assay, Human Calpain 2/NS1; details: read-out: Human Calpain 2/NS1 IC50
T2 sequence (P17655 1-700): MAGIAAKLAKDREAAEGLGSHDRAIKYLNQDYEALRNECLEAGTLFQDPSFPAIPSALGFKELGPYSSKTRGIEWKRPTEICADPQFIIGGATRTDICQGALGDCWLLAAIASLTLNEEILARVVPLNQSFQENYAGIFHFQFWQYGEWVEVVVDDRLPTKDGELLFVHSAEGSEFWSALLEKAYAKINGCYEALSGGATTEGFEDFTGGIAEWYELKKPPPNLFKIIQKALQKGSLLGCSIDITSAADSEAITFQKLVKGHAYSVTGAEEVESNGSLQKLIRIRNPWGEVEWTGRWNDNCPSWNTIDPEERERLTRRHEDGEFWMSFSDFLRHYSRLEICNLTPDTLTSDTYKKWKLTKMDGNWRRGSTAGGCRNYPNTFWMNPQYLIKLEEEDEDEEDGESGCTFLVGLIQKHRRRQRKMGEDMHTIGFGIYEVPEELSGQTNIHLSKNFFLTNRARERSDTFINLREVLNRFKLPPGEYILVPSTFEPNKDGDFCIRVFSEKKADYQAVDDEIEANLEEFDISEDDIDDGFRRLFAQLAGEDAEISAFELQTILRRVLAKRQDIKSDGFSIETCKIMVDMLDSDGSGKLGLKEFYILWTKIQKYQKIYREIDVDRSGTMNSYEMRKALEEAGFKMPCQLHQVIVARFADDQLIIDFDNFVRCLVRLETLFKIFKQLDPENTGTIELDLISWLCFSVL
T2 sequence (P04632 1-268 partner): T1 sequence (P04632 1-268 partner)
In short: as §1

Human Calpain 9/NS1 = target: T3, Human Calpain 9/NS1 (Homo sapiens, UniProt O14815); experiment: Calpain inhibition continuous fluorescence (FRET) assay, Human Calpain 9/NS1; details: read-out: Human Calpain 9/NS1 IC50
T3 sequence (O14815 1-690): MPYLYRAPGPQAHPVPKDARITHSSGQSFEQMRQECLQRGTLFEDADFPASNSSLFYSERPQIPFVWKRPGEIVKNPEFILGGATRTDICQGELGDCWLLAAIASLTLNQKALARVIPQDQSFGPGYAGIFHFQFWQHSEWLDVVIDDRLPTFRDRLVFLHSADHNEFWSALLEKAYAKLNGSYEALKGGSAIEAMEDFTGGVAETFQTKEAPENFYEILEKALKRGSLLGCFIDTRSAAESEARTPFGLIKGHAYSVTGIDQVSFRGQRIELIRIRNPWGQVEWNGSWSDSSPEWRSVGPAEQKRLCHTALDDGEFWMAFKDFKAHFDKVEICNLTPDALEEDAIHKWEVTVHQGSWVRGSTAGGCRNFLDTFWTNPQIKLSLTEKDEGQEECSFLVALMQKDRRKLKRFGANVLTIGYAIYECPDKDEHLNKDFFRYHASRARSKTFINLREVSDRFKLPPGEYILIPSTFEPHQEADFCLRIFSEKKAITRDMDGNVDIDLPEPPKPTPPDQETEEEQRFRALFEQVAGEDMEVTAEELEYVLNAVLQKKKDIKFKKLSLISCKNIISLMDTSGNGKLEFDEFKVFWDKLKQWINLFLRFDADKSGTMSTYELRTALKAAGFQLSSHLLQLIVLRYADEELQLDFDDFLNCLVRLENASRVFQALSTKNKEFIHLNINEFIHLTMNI
T3 sequence (P04632 1-268 partner): T1 sequence (P04632 1-268 partner)
In short: as §1

Row | SMILES | IC50 (Human Calpain 1/NS1; Column A) [µM] | IC50 (Human Calpain 2/NS1; Column B) [µM] | IC50 (Human Calpain 9/NS1; Column C) [µM] | IC50 (Human Calpain 1/NS1) [µM] | IC50 (Human Calpain 2/NS1) [µM] | IC50 (Human Calpain 9/NS1) [µM]
1 | O=C[C@H](Cc1ccccc1)NC(=O)c1scnc1-n1ncc2ccccc21 [Compound 22, (S)-4-(1H-indazol-1-yl)-N-(1-oxo-3-phenylpropan-2-yl)thiazole-5-carboxamide] | < 3 | < 3 | < 3 |  |  | 
2 | Cc1cc(C(F)(F)F)cc(-n2nc(C)cc2C(=O)N[C@@H](Cc2ccccc2)C(=O)C(N)=O)n1 [Compound 234, (S)—N-(4-amino-3,4-dioxo-1-phenylbutan-2-yl)-3-methyl-1-(6-methyl-4-(trifluoromethyl)pyridin-2-yl)-1H-pyrazole-5-carboxamide] | < 3 | < 3 | < 3 |  |  | 
3 | COc1cccc(-c2nn(C)cc2C(=O)NC(Cc2ccccc2)C(=O)C(N)=O)n1 (stereo not drawn) [Compound 487, N-(4-amino-3,4-dioxo-1-phenylbutan-2-yl)-3-(6-methoxypyridin-2-yl)-1-methyl-1H-pyrazole-4-carboxamide] |  |  |  | 3 to 10 | < 3 | < 3
4 | NC(=O)C(=O)[C@H](Cc1ccccc1)NC(=O)c1cnnn1-c1ccccc1 [Compound 263, (S)—N-(4-amino-3,4-dioxo-1-phenylbutan-2-yl)-1-phenyl-1H-1,2,3-triazole-5-carboxamide] | < 3 | < 3 | < 3 |  |  | 
5 | Cc1cc(C(=O)N[C@H](C=O)Cc2ccccc2)nn1-c1ccccc1 [Compound 5] | > 10 | 3 to 10 | 3 to 10 |  |  | 
6 | O=C[C@H](Cc1ccccc1)NC(=O)c1cncn1-c1n[nH]c2ccccc12 [Compound 102, (S)-1-(1H-indazol-3-yl)-N-(1-oxo-3-phenylpropan-2-yl)-1H-imidazole-5-carboxamide] | < 3 | < 3 | < 3 |  |  | 
7 | NC(=O)C(=O)[C@H](Cc1ccccc1)NC(=O)c1scnc1-n1cc2ccccc2n1 [Compound 37, (S)—N-(4-amino-3,4-dioxo-1-phenylbutan-2-yl)-4-(2H-indazol-2-yl)thiazole-5-carboxamide] | < 3 | < 3 | < 3 |  |  | 
8 | Cc1cc(C(=O)N[C@@H](Cc2ccccc2)C(=O)C(N)=O)n(-c2cccc3ncccc23)n1 [Compound 108, (S)—N-(4-amino-3,4-dioxo-1-phenylbutan-2-yl)-3-methyl-1-(quinolin-5-yl)-1H-pyrazole-5-carboxamide] | < 3 | < 3 | < 3 |  |  | 
9 | Cn1cc(C(=O)N[C@@H](Cc2ccccc2)C(=O)C(N)=O)c(-c2ccccn2)n1 [Compound 169, (S)—N-(4-amino-3,4-dioxo-1-phenylbutan-2-yl)-1-methyl-3-(pyridin-2-yl)-1H-pyrazole-4-carboxamide] | < 3 | < 3 | < 3 |  |  | 
10 | NC(=O)C(=O)[C@H](Cc1ccccc1)NC(=O)c1ccnn1-c1ccccc1 [Compound 10, (S)—N-(4-amino-3,4-dioxo-1-phenylbutan-2-yl)-1-phenyl-1H-pyrazole-5-carboxamide] | < 3 | < 3 | < 3 |  |  | 
11 | Cn1cc(C(=O)N[C@@H](Cc2ccccc2)C(=O)C(N)=O)c(-c2ccncn2)n1 [Compound 192, (S)—N-(4-amino-3,4-dioxo-1-phenylbutan-2-yl)-1-methyl-3-(pyrimidin-4-yl)-1H-pyrazole-4-carboxamide] | < 3 | < 3 | < 3 |  |  | 
12 | Cn1cc(C(=O)NC(Cc2ccccc2)C(=O)C(N)=O)c(-c2n[nH]c3ccccc23)n1 (stereo not drawn) [Compound 482, N-(4-amino-3,4-dioxo-1-phenylbutan-2-yl)-3-(1H-indazol-3-yl)-1-methyl-1H-pyrazole-4-carboxamide] |  |  |  | 3 to 10 | 3 to 10 | < 3
13 | Cc1noc(-c2ccccc2)c1C(=O)N[C@@H](Cc1ccccc1)C(=O)C(=O)NC1CC1 [Compound 100, (S)—N-(4-(cyclopropylamino)-3,4-dioxo-1-phenylbutan-2-yl)-3-methyl-5-phenylisoxazole-4-carboxamide] | < 3 | < 3 | < 3 |  |  | 
14 | NC(=O)C(=O)[C@H](Cc1ccccc1)NC(=O)c1cncn1-c1ccn(-c2ccccc2)n1 [Compound 68, (S)—N-(4-amino-3,4-dioxo-1-phenylbutan-2-yl)-1-(1-phenyl-1H-pyrazol-3-yl)-1H-imidazole-5-carboxamide] | < 3 | < 3 | < 3 |  |  | 
15 | Cc1ccc(-c2c(C(=O)N[C@@H](Cc3ccccc3)C(=O)C(N)=O)cnn2C)cc1 [Compound 167, (S)—N-(4-amino-3,4-dioxo-1-phenylbutan-2-yl)-1-methyl-5-(p-tolyl)-1H-pyrazole-4-carboxamide] | < 3 | < 3 | < 3 |  |  | 
16 | NC(=O)C(=O)[C@H](Cc1ccccc1)NC(=O)c1scnc1-n1ncc2ccccc21 [Compound 40, (S)—N-(4-amino-3,4-dioxo-1-phenylbutan-2-yl)-4-(1H-indazol-1-yl)thiazole-5-carboxamide] | < 3 | < 3 | < 3 |  |  | 
17 | O=C[C@H](Cc1ccccc1)NC(=O)c1cncn1-c1ccc(-c2ncco2)cn1 [Compound 111, (S)-1-(5-(oxazol-2-yl)pyridin-2-yl)-N-(1-oxo-3-phenylpropan-2-yl)-1H-imidazole-5-carboxamide] | < 3 | < 3 | < 3 |  |  | 
18 | NC(=O)C(=O)[C@H](Cc1ccccc1)NC(=O)c1cncn1-c1ncc(-c2ccccc2)cn1 [Compound 74, (S)—N-(4-amino-3,4-dioxo-1-phenylbutan-2-yl)-1-(5-phenylpyrimidin-2-yl)-1H-imidazole-5-carboxamide] | < 3 | < 3 | < 3 |  |  | 
19 | O=C(NC1CC1)C(=O)[C@H](Cc1ccccc1)NC(=O)c1cncn1-c1ccn(-c2ccccc2)n1 [Compound 42, (S)—N-(4-(cyclopropylamino)-3,4-dioxo-1-phenylbutan-2-yl)-1-(1-phenyl-1H-pyrazol-3-yl)-1H-imidazole-5-carboxamide] | < 3 | < 3 | > 10 |  |  | 
